Measurements taken from US7538241B2, “Hsp90 family protein inhibitors” (Kyowa Hakko Kogyo Co., Ltd., priority 2003, dated 2009).

These compounds were tested on human chronic myelocytic leukemia-derived K562 cells (assay: Cell growth inhibition test with K562 cells (WST-1)). Settings: 72 hours, read-out: 50% growth inhibition concentration (GI50).
Assay type: cell-based
Protocol: In a 96-well plate (Nunc), human chronic myelocytic leukemia-derived K562 cells were sown in an amount of 1500 cells/well, and pre-incubated in 10% FCS-containing Rosewell Park Memorial Institute's Medium (RPMI) 1640 (Nissui) (incubation medium) in a 5% carbon dioxide incubator at 37° C. for 5 hours. Next, a DMSO solution of a test compound controlled at 10 mmol/L was stepwise diluted with the incubation medium, and added to each well in a total amount of 100 μL/well, and further incubated in the 5% carbon dioxide incubator at 37° C. for 72 hours. After the incubation, WST-1-labeled mixture (Rosh Diagnostic) diluted 2-fold with the incubation medium was added thereto in an amount of 20 μL/well, and incubated in the 5% carbon dioxide incubator at 37° C. for 2 hours. Using a microplate spectrophotometer (Biorad's Model 550), the absorbance at 450 nm and 655 nm of each well was measured. The cell growth inhibition activity of the test compound was indicated by the 50% growth inhibition concentration (GI50) thereof, like in Test Example 2.

| GI50 | SMILES |
| --- | --- |
| ≤ 50 µM | CCc1c(O)cc(O)c(-c2ccccc2)c1CCC(O)CC(O)CO (stereo not shown) [Compound 170, 6-Ethyl-4-phenyl-5-(3,5,6-trihydroxyhexyl)benzene-1,3-diol] |
| ≤ 50 µM | CCc1c(O)cc(O)c(-c2cccc(OCCN3CCOCC3)c2)c1CCOCC(O)CO (stereo not shown) [Compound 195, 5-[2-(2,3-Dihydroxypropoxy)ethyl]-6-ethyl-4-[3-(2-morpholinoethoxy)phenyl]benzene-1,3-diol] |

Each compound was assayed on human mammary cancer-derived KPL-4 cells (assay: Cell growth inhibition test with KPL-4 cells (WST-1)). Settings: KPL4, 72 hours, read-out: 50% growth inhibition concentration (GI50).
Assay type: cell-based
Protocol: In a 96-well plate (Nunc), human mammary cancer-derived KPL-4 cells were sown in an amount of 2000 cells/well, and pre-incubated in 10% fetal calf serum (FCS)-containing Dulbecco Modified Eagle Medium (DMEM) (incubation medium) in a 5% carbon dioxide incubator at 37° C. for 24 hours. A dimethylsulfoxide (DMSO) solution of a test compound controlled at 10 mmol/L was stepwise diluted with the incubation medium, and added to each well in a total amount of 100 μL/well, and incubated in the 5% carbon dioxide incubator at 37° C. for 72 hours. After the incubation, WST-1 {4-[3-(4-Iodophenyl)-2-(4-nitrophenyl)-2H-5-tetrazolio]-1,3-benzene disulfonate}-labeled mixture (Rosh Diagnostic) diluted 2-fold with the incubation medium was added thereto in an amount of 20 μL/well, and incubated in the 5% carbon dioxide incubator at 37° C. for 1 hour. Using a microplate spectrophotometer (Biorad's Model 550), the absorbance at 450 nm and 655 nm of each well was measured. The cell growth inhibition activity of the test compound was indicated by the 50% growth inhibition concentration (GI50) thereof. A method of calculating GI50 is described. The absorbance at 655 nm of each well was subtracted from the absorbance at 450 nm thereof to give a value (absorbance difference). The absorbance difference obtained with the cells without being treated with the test compound was taken as 100%, and this was compared with the absorbance difference obtained with the cells treated with the test compound to give the concentration of the compound for 50% cell growth inhibition, and this is referred to as GI50.

| SMILES | GI50 |
| --- | --- |
| CCc1c(O)cc(O)c(-c2ccccc2)c1CCOC1OC(CO)C(O)C(O)C1O (stereo not shown) [Compound 183, 6-Ethyl-4-phenyl-5-{2-[3,4,5-trihydroxy-6-(hydroxymethyl)tetrahydropyran-2-yloxy]ethyl}benzene-1,3-diol] | ≤ 50 µM |
| CCc1c(O)cc(O)c(-c2ccccc2)c1CCC(O)C(CO)CO (stereo not shown) [Compound 185, 6-Ethyl-5-[3,5-dihydroxy-4-(hydroxymethyl)pentyl]-4-phenylbenzene-1,3-diol] | ≤ 50 µM |
| CCc1c(O)cc(O)c(-c2ccccc2)c1CCOCc1cccnc1 [Compound 188, 6-Ethyl-4-phenyl-5-[2-(pyridin-3-ylmethoxy)ethyl]benzene-1,3-diol] | ≤ 50 µM |
| CCc1c(O)cc(O)c(-c2cccc(OCc3ccccn3)c2)c1CCOCC(O)CO (stereo not shown) [Compound 190, 5-[2-(2,3-Dihydroxypropoxy)ethyl]-6-ethyl-4-[3-(pyridin-2-ylmethyloxy)phenyl]benzene-1,3-diol] | ≤ 50 µM |
| CCc1c(O)cc(O)c(-c2cccc(OCc3cccnc3)c2)c1CCOCC(O)CO (stereo not shown) [Compound 191, 5-[2-(2,3-Dihydroxypropoxy)ethyl]-6-ethyl-4-[3-(pyridin-3-ylmethyloxy)phenyl]benzene-1,3-diol] | ≤ 50 µM |
| CCc1c(O)cc(O)c(-c2cccc(OCc3ccncc3)c2)c1CCOCC(O)CO (stereo not shown) [Compound 192, 5-[2-(2,3-Dihydroxypropoxy)ethyl]-6-ethyl-4-[3-(pyridin-4-ylmethyloxy)phenyl]benzene-1,3-diol] | ≤ 50 µM |
| CCc1c(O)cc(O)c(-c2cccc(OCc3csc(C)n3)c2)c1CCOCC(O)CO (stereo not shown) [Compound 193, 5-[2-(2,3-Dihydroxypropoxy)ethyl]-6-ethyl-4-[3-(2-methyl-1,3-thiazol-4-ylmethyloxy)phenyl]benzene-1,3-diol] | ≤ 50 µM |
| CCc1c(O)cc(O)c(-c2cccc(OCCO)c2)c1CCOCC(O)CO (stereo not shown) [Compound 194, 5-[2-(2,3-Dihydroxypropoxy)ethyl]-6-ethyl-4-[3-(2-hydroxyethoxy)phenyl]benzene-1,3-diol] | ≤ 50 µM |
| CCOC(=O)CCc1ccc(-c2c(O)cc(O)cc2COCc2ccccc2)o1 [Compound 236, Ethyl 3-{5-[6-(benzyloxymethyl)-2,4-dihydroxyphenyl]furan-2-yl}propanoate] | ≤ 50 µM |
| COC(=O)CCc1ccc(-c2c(O)cc(O)cc2C(OC)c2ccccc2)o1 (stereo not shown) [Compound 237, Methyl 3-{5-[2,4-dihydroxy-6-(1-methoxy-1-phenylmethyl)phenyl]furan-2-yl}propanoate] | ≤ 50 µM |
| CCN(CC)C(=O)Cc1c(Br)c(O)cc(O)c1-c1ccco1 [Compound 241, 2-[2-Bromo-6-(furan-2-yl)-3,5-dihydroxyphenyl]-N,N-diethylacetamide] | ≤ 50 µM |
| COc1cc(NC(=O)Cc2c(Br)c(O)cc(O)c2-c2ccco2)cc(OC)c1 [Compound 242, 2-[2-Bromo-6-(furan-2-yl)-3,5-dihydroxyphenyl]-N-(3,5-dimethoxyphenyl)acetamide] | ≤ 50 µM |
| COCCc1c(Br)c(O)cc(O)c1-c1ccco1 [Compound 243, 6-Bromo-4-(furan-2-yl)-5-(2-methoxyethyl)benzene-1,3-diol] | ≤ 50 µM |
| CCc1c(O)cc(O)c(-c2ccco2)c1CCOC [Compound 244, 6-Ethyl-4-(furan-2-yl)-5-(2-methoxyethyl)benzene-1,3-diol] | ≤ 50 µM |
| CCc1c(O)cc(O)c(-c2ccco2)c1CC(=O)N(C)CCOC [Compound 257, 2-[2-Ethyl-6-(furan-2-yl)-3,5-dihydroxyphenyl]-N-(2-methoxyethyl)-N-methylacetamide] | ≤ 50 µM |
| COC(=O)CCc1ccc(-c2c(O)cc(O)cc2CC(=O)OC)o1 [Compound 260, Methyl 3-{5-[2,4-dihydroxy-6-(methoxycarbonylmethyl)phenyl]furan-2-yl}propanoate] | ≤ 50 µM |
| COC(=O)CCc1ccc(-c2c(O)cc(O)c(Br)c2CC(=O)OC)o1 [Compound 267, Methyl 3-{5-[5-bromo-2,4-dihydroxy-6-(methoxycarbonylmethyl)phenyl]furan-2-yl}propanoate] | ≤ 50 µM |
| COC(=O)Cc1cc(O)cc(O)c1-c1ccc2c(c1)OCO2 [Compound 273, Methyl 2-(1,3-benzodioxolan-5-yl)-3,5-dihydroxyphenylacetate] | ≤ 50 µM |
| CCc1cc(-c2n[nH]c3ccc([N+](=O)[O-])cc23)c(O)cc1O [Compound 277, 6-Ethyl-4-(5-nitro-1H-indazol-3-yl)benzene-1,3-diol] | ≤ 50 µM |
| CCc1cc(-c2nc3ccccc3[nH]2)c(O)cc1O [Compound 278, 4-Benzimidazol-2-yl-6-ethylbenzene-1,3-diol] | ≤ 50 µM |
| CCc1cc(-c2nc3ccccc3n2-c2ccccc2)c(O)cc1O [Compound 279, 6-Ethyl-4-(1-phenylbenzimidazol-2-yl)benzene-1,3-diol] | ≤ 50 µM |
| CCc1c(O)cc(O)c(-c2ncc(-c3ccccc3)o2)c1CC(=O)OC [Compound 329, Methyl 2-ethyl-3,5-dihydroxy-6-(5-phenyl-1,3-oxazol-2-yl)phenylacetate] | ≤ 50 µM |
| CCc1c(O)cc(O)c(-c2n[nH]c3cc(OC)ccc23)c1CCOCC(O)CO (stereo not shown) [Compound 330, 5-[2-(2,3-Dihydroxypropoxy)ethyl]-6-ethyl-4-(6-methoxy-1H-indazol-3-yl)benzene-1,3-diol] | ≤ 50 µM |

The remaining lines, values ahead:

| GI50 | SMILES |
| --- | --- |
| ≤ 50 µM | CCc1c(O)cc(O)c(-c2ccccc2)c1CCOCC(N)=O [Compound 155, 2-[2-(2-Ethyl-3,5-dihydroxy-6-phenylphenyl)ethoxy]acetamide] |
| ≤ 50 µM | CCc1c(O)cc(O)c(-c2ccccc2)c1CCOCC(=O)N(C)C [Compound 157, 2-[2-(2-Ethyl-3,5-dihydroxy-6-phenylphenyl)ethoxy]-N,N-dimethylacetamide] |
| ≤ 50 µM | CCc1c(O)cc(O)c(-c2ccccc2)c1CCCOCC(N)=O [Compound 158, 2-[3-(2-Ethyl-3,5-dihydroxy-6-phenylphenyl)propoxy]acetamide] |
| ≤ 50 µM | CCc1c(O)cc(O)c(-c2ccccc2)c1CCCOCC(=O)N(C)C [Compound 160, 2-[3-(2-Ethyl-3,5-dihydroxy-6-phenylphenyl)propoxy]-N,N-dimethylacetamide] |
| ≤ 50 µM | CCc1c(O)cc(O)c(-c2ccccc2)c1CCCOCC(=O)NCCOC [Compound 168, 2-[3-(2-Ethyl-3,5-dihydroxy-6-phenylphenyl)propoxy]-N-(2-methoxyethyl)acetamide] |
| ≤ 50 µM | CCc1c(O)cc(O)c(-c2ccccc2)c1CCC(O)CC(O)CO (stereo not shown) [Compound 169, 6-Ethyl-4-phenyl-5-(3,5,6-trihydroxyhexyl)benzene-1,3-diol] |
| ≤ 50 µM | CCc1c(O)cc(O)c(-c2ccccc2)c1CCOCCCOC [Compound 176, 6-Ethyl-5-[2-(3-methoxypropoxy)ethyl]-4-phenylbenzene-1,3-diol] |
| ≤ 50 µM | CCc1c(O)cc(O)c(-c2ccccc2)c1CC(O)CC(O)CO (stereo not shown) [Compound 177, 6-Ethyl-4-phenyl-5-(2,4,5-trihydroxypentyl)benzene-1,3-diol] |
| ≤ 50 µM | CCc1c(O)cc(O)c(-c2ccccc2)c1CCOCC(O)COCCO (stereo not shown) [Compound 179, 6-Ethyl-5-{2-[2-hydroxy-3-(2-hydroxyethoxy)propoxy]ethyl}-4-phenylbenzene-1,3-diol] |
| ≤ 50 µM | CCc1c(O)cc(O)c(-c2ccccc2)c1CC(O)C(O)CO (stereo not shown) [Compound 180, 6-Ethyl-4-phenyl-5-(2,3,4-trihydroxybutyl)benzene-1,3-diol] |
| ≤ 50 µM | CCc1c(O)cc(O)c(-c2ccccc2)c1CCC(O)C(O)CO (stereo not shown) [Compound 181, 6-Ethyl-4-phenyl-5-(3,4,5-trihydroxypentyl)benzene-1,3-diol] |
| ≤ 50 µM | CCc1c(O)cc(O)c(-c2ccccc2)c1CC(O)CO (stereo not shown) [Compound 182, 6-Ethyl-5-(2,3-dihydroxypropyl)-4-phenylbenzene-1,3-diol] |
